The source of these data is PMC12812009, “Optimization of 4‐Amino‐2‐Pyridone Inhibitors of Proprotein Convertase Subtilisin/Kexin Type 9: Integrating Structure–Activity and Structure–Metabolism Relationships” (Chemmedchem, 2025).

Where two headings read alike, the source gives them in different places.

The test system of one series is secreted PCSK9. Kind of series: PCSK9 secretion in culture medium, ELISA on HepG2 supernatants. The series is classed as cell-based, human. The note with it: for decrease of secreted PCSK9 vs. basal: given as decrease. On the procedure:
Next, the levels of secreted PCSK9 were quantified by ELISA assay (Figure 5) only on supernatants collected from cells treated with noncytotoxic concentrations of each compound, as reported in Table 1. Simvastatin (Simva) at 20 and 40 μM and berberine (BBR) at 10 μM were included as controls. As described in the literature, simvastatin induces PCSK9 expression as a compensatory mechanism in response to its cholesterol‐lowering effects, being a pharmacological competitor for HMG‐CoA reductase, the rate‐limiting enzyme of the cholesterol biosynthetic pathway.^[ [29] ^] In contrast, BBR, a natural compound, reduces the expression of PCSK9 levels through transcriptional inhibition, thus increasing the LDLR availability on plasma membrane.^[ [30] ^] As additional and distinct mechanism to the latter, BBR is also able to stabilize the transcript of LDLR, thus increasing its half‐life.^[ [31] ^] As expected, cells stimulated with simvastatin released more PCSK9 into the culture medium compared to unstimulated cells, with a statistically significant concentration‐dependent effect (+73% at 20 μM, p < 0.01; +200% at 40 μM, p < 0.0001), while BBR at 10 μM decreased PCSK9 levels in the medium more than 50% (p < 0.0001 vs. basal) (Figure 5).^[ [32] ^] The amount of PCSK9 secreted into the culture media was measured with an appropriate ELISA kit (R&D System, DY3888 and DY008B2) on the supernatants collected during the MTT assay. Every experimental condition was run in duplicate and the average PCSK9 secretion and standard deviation was calculated. A 4PL regression analysis was used to interpolate unknowns with the standard curve using GraphPad Prism v10.2, according to manufacturers’ instructions. The data were normalized onto the corresponding cell viability, and IC50 was then calculated using GraphPad Prism v10.2.
For orientation: ELISA stands for enzyme-linked immunosorbent assay.

A short description of series [1]: MTT cell viability assay in HepG2 cell cultures. The series is classed as cell-based, human. The note with it: human, HepG2 cells, MTT. On the procedure:
The approach we set‐up to test the new PCSK9i was based on functional assay, which evaluated at the same time compounds cytotoxicity, and their effect on the secreted PCSK9 on the same cell line. First, cell viability was evaluated in HepG2 cell cultures using the MTT assay (CC50 values are reported in Table 1 and Figure 5 ) after 24 h of incubation in starving conditions (0.4% fetal bovine serum (FBS)). The low FBS concentration, and thus low extracellular lipoproteins, stimulates the sterol responsive element binding protein (SREBP) pathway, inducing the expression of LDLR, PCSK9, HMG‐CoA reductase,^[ [28] ^] thus increasing the uptake of exogenous cholesterol and enhancing the synthesis of endogenous cholesterol. This first step allowed us to calculate the CC50 and identify the noncytotoxic concentrations (viability higher than 90%; Table 1), then tested for PCSK9 inhibitory activity.
Cell viability was assessed using the MTT assay. Cells were seeded in 96‐well plates (2.5 × 10^4 cells/well) in MEM supplemented with 10% v/v FBS and incubated for 24 h. The cells were then treated with the synthesized compounds dissolved in DMSO at increasing concentrations (from 0.5 to 50 µM) in MEM supplemented with 0.4% v/v FBS for 24 h. Simvastatin [20 and 40 µM] and BBR [10 µM] (both from Merck, St. Louis, Missouri, USA) were used as internal controls as PCSK9 inducer and inhibitor, respectively.^[ [21] ^, [34] ^, [35] ^] The cells were then incubated for 2 h with a solution of MTT [1 mg mL^–1] in MEM supplemented with 0.4% v/v FBS, away from light sources. The supernatant was then collected and 200 µL of DMSO was added to each well to solubilize the newly formed formazan. Finally, an aliquot of 100 µL was taken to measure the absorbance at a wavelength of 570 nm using an absorbance microplate reader (Spark Tecan, Switzerland). Every experimental condition was run in duplicate and the average cell viability and standard deviation was calculated. Cell viability was expressed as the percentage of treated cells compared to untreated (basal) cells. CC50 values for each compound were calculated by interpolating the percentage of cell viability through nonlinear regression analysis of the log (inhibition) versus response using GraphPad Prism software version 8.0 (GraphPad Software Inc., La Jolla, CA).
On the technique in general: Tetrazolium assays rely on reduction of a dye to a coloured formazan, in cell work by metabolically active cells.

Series [2] is described as follows: In vitro metabolic stability with mouse liver microsomes. In kind it is in vitro ADME. The note with it: 60 min; for metabolic stability (in words): MLM + NADPH-generating system. As to the method:
All newly synthesized LSF derivatives of 5c were biologically evaluated to determine whether the introduced modifications influenced both metabolic stability and anti‐PCSK9 activity. Microsomal stability assays were conducted to assess the impact of LSF modifications on improving the stability of 5c. In these assays, LSF derivatives were incubated with mouse liver microsomes (MLM) and an NADPH‐generating system for 60 min, followed by HPLC analysis. Control samples included compounds and liver microsomes without the NADPH system, allowing for the assessment of nonspecific binding to microsomes. […] Acylated derivatives 12, 13, and 14 achieved stability levels exceeding 95%, as did the bicyclic derivative 7, which exemplifies a dual‐site functionalization.
MLM (pooled male) were obtained from Xenotech, LLC (Cambridge, Kansas City, USA). Glucose‐6‐phosphate (G6P), oxidized nicotinamide‐adenine‐dinucleotide phosphate (NADP^+), magnesium chloride (MgCl2), and glucose‐6‐phosphate‐dehydrogenase (G6PDH) were supplied by Sigma‐Aldrich (Milan, Italy). Metabolic stability assays were modified from Ferlenghi et al.^[ [33] ^] Briefly, samples were prepared in 100 mM phosphate buffered saline (PBS), pH 7.4, containing 1 mg ml^–1 MLM and a NADPH‐generating system (5 mM MgCl2, 10 mM glucose‐6‐phosphate, 2 mM NADP^+, 1.5 U ml^–1 of glucose‐6‐phosphate dehydrogenase). After incubation (37 °C, 5 min stirring), compounds stock solutions in DMSO were added to a final concentration of 10 µM. The final DMSO percentage in samples was kept at 0.5%. After 60 min, single aliquots of reaction mixture were withdrawn, added of two volumes of acetonitrile, centrifuged (10,000 g, 10 min) and the supernatant was analyzed by HPLC. The unspecific binding to MLM was evaluated by means of control samples in which the compounds were incubated in the absence of a NADPH generating system. The apparatus used for HPLC analysis was a Shimadzu instrument, with a reverse‐phase Nova‐Pak column (Waters) (C18 4 μm 3.9 × 150 mm, Waters). The mobile phase, pumped at a flow rate of 1.2 ml min^–1, consisted of water and acetonitrile in either a 50:50 (v/v) ratio (compounds 5c, 6a, 6b, 6c, 7, 8, 12, 13, 14, 17b) or a 40:60 (v/v) ratio (compounds 11 and 15) or a 30:70 (v/v) ratio (for compounds 17a, 18a, 18b). For compounds 9 and 10, a phosphate buffer (5.98 g L^–1 Na2HPO4, 0.19 g L^–1 KH2PO4, adjusted to pH 7.4 with 85% H3PO4 and supplemented with 1.4 mL L^–1 triethylamine; final pH: 8) and acetonitrile (50:50, v/v) were pumped at a flow rate of 2 mL min^–1. In all cases, column temperature was 35 °C, injection volume was 50 µl, and absorbance was monitored at 254 nm. Serial dilutions for the calibration curves were prepared in the interval 0.5–20 µM in either PBS:CH3CN or H2O:CH3CN mixture (50:50, v/v) for compounds 5c, 6a, 6b, 8, 9, 10, 11, 12, 13, 14, 15, 17a, 17b, 18a, 18b, and in acetonitrile for compounds 6c and 7.
On the technique in general: Microsomes from liver hold many membrane-bound enzymes, among them those of drug oxidation.

Setting [3] is: printed in Figures 5 and 8, HepG2, 24 h, read-out: CC50.
The mark [4] stands for this setting: Homo sapiens, HepG2, Table S2, ELISA, non-cytotoxic concentrations, read-out: IC50 ± SD on PCSK9 secreted by HepG2.
[5] abbreviates: Homo sapiens, HepG2, 24 h, read-out: secreted PCSK9 change vs. basal.
Setting [6] is: 24 h incubation, HepG2, 0.4% FBS, 0.5-50.0 μM, read-out: CC50 (CI 95%).
[7] abbreviates: HepG2, 24 h, non-cytotoxic concentrations.

Take `COc1ccc2cc3[n+](cc2c1OC)CCc1cc2c(cc1-3)OCO2` [BBR, berberine, reference compound]: in the series on secreted PCSK9 (10 μM, HepG2, 24 h), the “decrease of secreted PCSK9 vs. basal” value is listed as “more than 50%”. Also, in the series on secreted PCSK9 (Homo sapiens, 10 μM, HepG2, 24 h, read-out: secreted PCSK9 change vs. basal), the inhibition at 10 µM amounted to 52%. Further, the IC50 with secreted PCSK9 (Homo sapiens, HepG2, 24 h, ELISA on supernatants, normalized to viability, Figures 5 and 8 and text, read-out: IC50 (anti-PCSK9 activity, PCSK9 secretion)) was found to be 10 µM. In series [1] (setting [3]), the CC50 at 24 h is 25 µM.

Regarding `Cc1cc(NCc2ccc(C(F)(F)F)cc2)c(Cl)c(=O)n1Cc1ccc(C(F)(F)F)cc1` [Compound 6a, 3‐Chloro‐6‐Methyl‐1‐(4‐(Trifluoromethyl)Benzyl)‐4‐((4‐(Trifluoromethyl)Benzyl)Amino)pyridin‐2(1H)‐One], the IC50 with secreted PCSK9 (setting [4]) turned out to be 5.4 ± 2.65 µM. Also, in the series on secreted PCSK9 (setting [5]), the inhibition at 0.5 µM is 80%. In the series on secreted PCSK9 (Homo sapiens, 5 μM, HepG2, 24 h, read-out: secreted PCSK9 change vs. basal), the inhibition at 5 µM worked out at 55%. The 50% cytotoxic concentration (CC50) at 24 h in series [1] (setting [6]) came out at 16 µM.

For `Cc1cc(NCc2ccc(C(F)(F)F)cc2)c(I)c(=O)n1Cc1ccc(C(F)(F)F)cc1` [Compound 6c, 3‐Iodo‐6‐Methyl‐1‐(4‐(Trifluoromethyl)Benzyl)‐4‐((4‐(Trifluoromethyl)Benzyl)Amino)pyridin‐2(1H)‐One], the inhibition at 0.5 µM in the series on secreted PCSK9 (setting [5]) amounted to 20%. The “metabolic stability (in words)” value in series [2] was “did not improve compared to the parent compound 5c”. Also, the CC50 at 24 h in series [1] (setting [6]) worked out at 46.9 µM.

With `CO/C(=N\c1cc(C)n(Cc2ccc(C(F)(F)F)cc2)c(=O)c1)c1ccc(C(F)(F)F)cc1` [Compound 8, Methyl (Z)‐N‐(6‐Methyl‐2‐Oxo‐1‐(4‐(Trifluoromethyl)Benzyl)‐1,2‐Dihydropyridin‐4‐yl)‐4‐(Trifluoromethyl)Benzimidate], the “decrease of secreted PCSK9 vs. basal” value with secreted PCSK9 (10 μM, HepG2, 24 h) was 50%. Also, the IC50 in the series with secreted PCSK9 (setting [4]) turned out to be 7.2 ± 0.51 µM. Further, in series [2], the “metabolic stability (in words)” value is “entirely metabolized”. For the same molecule, the cytotoxic concentration (CC50) at 24 h came to 30.2 µM in series [1] (setting [6]) and 43.1 µM in series [1] (setting [3]).

`Cc1cc(NCc2ccc(C(F)(F)F)cc2)c(CN2CCCC2)c(=O)n1Cc1ccc(C(F)(F)F)cc1` [Compound 9, 6‐Methyl‐3‐(Pyrrolidin‐1‐ylmethyl)‐1‐(4‐(Trifluoromethyl)Benzyl)‐4‐((4‐(Trifluoromethyl)Benzyl)Amino)pyridin‐2(1H)‐One]: the “effect on PCSK9 secretion (in words)” value with secreted PCSK9 (setting [7]) was “moderate but significant inhibition of PCSK9 secretion”. Further, the “metabolic stability (in words)” value in series [2] is “did not exhibit any enhancements relative to 5c”. Further, in series [1] (setting [6]), the CC50 at 24 h is 22.2 µM.

In the case of `Cc1cc2c(c(=O)n1Cc1ccc(C(F)(F)F)cc1)CN(C(C)C)CN2Cc1ccc(C(F)(F)F)cc1` [Compound 10, 3‐Isopropyl‐7‐Methyl‐1,6‐Bis(4‐(Trifluoromethyl)Benzyl)‐2,3,4,6‐Tetrahydropyrido[4,3‐d]pyrimidin‐5(1H)‐One], the “metabolic stability (in words)” value in series [2] is on record as “less stable”. For the same molecule, in series [1] (setting [6]), the CC50 at 24 h was determined as 21.9 µM.

Turning to `Cc1cc2c(c(=O)n1Cc1ccc(C(F)(F)F)cc1)CCC(=O)N2Cc1ccc(C(F)(F)F)cc1` [Compound 11, 7‐Methyl‐1,6‐Bis(4‐(Trifluoromethyl)Benzyl)‐4,6‐Dihydro‐1,6‐Naphthyridine‐2,5(1H,3H)‐Dione], in the series with secreted PCSK9 (setting [7]), the “effect on PCSK9 secretion (in words)” value was “moderate but significant inhibition of PCSK9 secretion”. The IC50 with secreted PCSK9 (setting [4]) came to 10.2 ± 2.81 µM. The “metabolic stability (in words)” value in series [2] was “modest yet notable improvement in stability”. For the same molecule, the CC50 at 24 h in series [1] (setting [6]) worked out at 28 µM.

Turning to `CC(=O)N(Cc1ccc(C(F)(F)F)cc1)c1cc(C)n(Cc2ccc(C(F)(F)F)cc2)c(=O)c1` [Compound 12, N‐(6‐Methyl‐2‐Oxo‐1‐(4‐(Trifluoromethyl)Benzyl)‐1,2‐Dihydropyridin‐4‐yl)‐N‐(4‐(Trifluoromethyl)Benzyl)Acetamide], the “effect on PCSK9 secretion (in words)” value in the series on secreted PCSK9 (setting [7]) is on record as “did not inhibit PCSK9 in a dose‐dependent manner”. In addition, the IC50 in the series with secreted PCSK9 (setting [4]) is 13.6 ± 2.67 µM. In the series on secreted PCSK9 (Homo sapiens, 25 μM, HepG2, 24 h, read-out: secreted PCSK9 change vs. basal), the inhibition at 25 µM is 75%. Besides, in series [2] (MLM 1 mg/ml + NADPH-generating system, 10 µM, HPLC), the “metabolic stability, percentage of intact compound recovered relative to control” value is on record as “exceeding 95%”. Further, in series [1] (setting [6]), the CC50 at 24 h came to 43 µM.

Turning to `CCC(C)(C)C(=O)O[C@H]1C[C@@H](C)C=C2C=C[C@H](C)[C@H](CC[C@@H]3C[C@@H](O)CC(=O)O3)[C@H]21` [simvastatin, reference compound], the “secreted PCSK9 change vs. unstimulated cells” value in the series on secreted PCSK9 (20 μM, HepG2, 24 h) is “+73%”; in the series with secreted PCSK9 (40 μM, HepG2, 24 h), “+200%”.

A word on the IC50: it is the concentration that inhibits the measured activity by half. The CC50 is the concentration at which the toxic effect on the cells reaches its halfway point.
